According to US20260226077A1, “TYPE II TOPOISOMERASE INHIBITORS AND METHODS OF MAKING AND USING THEREOF” (Ohio State Innovation Foundation, priority 2023, published 2026):
In brackets after ≈: the same amount, converted by molar mass. Marks after values point to notes of the source that are not given here.

Key:
Escherichia coli 25922 = assay: MIC against Escherichia coli 25922; format: cell-based
Moraxella catarrhalis = assay: MIC50/90 against Moraxella catarrhalis; format: cell-based; details: n = 10
Streptococcus agalactiae = assay: MIC50/90 against Streptococcus agalactiae; format: cell-based
S. aureus USA300 = assay: MIC against S. aureus USA300; format: cell-based; details: Staphylococcus aureus
In vitro micronucleus = format: cell-based
FQ-R MRSA = assay: MIC against FQ-R MRSA isolates; format: cell-based, Staphylococcus aureus; details: Staphylococcus aureus, MRSA; n = 15 (147), n = 25 (284, 319, gepotidacin)
S. aureus 29213 = assay: MIC against S. aureus 29213; format: cell-based; details: Staphylococcus aureus
Streptococcus pyogenes = assay: MIC50/90 against Streptococcus pyogenes; format: cell-based
[1] = Human microsomal stability; format: in vitro ADME; details: microsomes, read-out: Human microsom. t1/2
[2] = Monkey microsomal stability; format: in vitro ADME; details: microsomes, read-out: Monkey microsom. t1/2
Mycobacterium abscessus = assay: MIC50/90 against Mycobacterium abscessus; format: cell-based; details: Mycobacteroides abscessus; n = 10
Enterococcus spp. = assay: MIC50/90 against Enterococcus spp.; format: cell-based; details: n = 10 (147), n = 20 (others)
Staphylococcus aureus = assay: MIC50/90 against Staphylococcus aureus isolates; format: cell-based; details: n = 30 (147), n = 100 (284, 319, gepotidacin)
[3] = in vivo
[4] = Mouse microsomal stability; format: in vitro ADME; details: microsomes, read-out: Mouse microsom. t1/2
Neisseria gonorrhoeae = assay: MIC50/90 against Neisseria gonorrhoeae; format: cell-based
Dog microsomal stability = format: in vitro ADME; details: microsomes, read-out: Dog microsom. t1/2
[5] = not given; remark: listed apart in the source
[6] = system: Mycobacterium chimaera intracellulare group; assay: MIC50 against Mycobacterium chimaera intracellulare group; format: cell-based; details: n = 6
in vitro [7] = details: human, plasma
[8] = all channels
in vitro [9] = details: mouse, hepatocytes
[10] = system: CYP 1A, 2B6, 2C8, 2C9, 2C19, 2D6, 3A; assay: CYP inhibition at 10 μM; format: in vitro ADME
hERG = hERG (Homo sapiens, UniProt Q12809); assay: hERG inhibition; format: cell-based
hERG, sequence (Q12809 whole entry): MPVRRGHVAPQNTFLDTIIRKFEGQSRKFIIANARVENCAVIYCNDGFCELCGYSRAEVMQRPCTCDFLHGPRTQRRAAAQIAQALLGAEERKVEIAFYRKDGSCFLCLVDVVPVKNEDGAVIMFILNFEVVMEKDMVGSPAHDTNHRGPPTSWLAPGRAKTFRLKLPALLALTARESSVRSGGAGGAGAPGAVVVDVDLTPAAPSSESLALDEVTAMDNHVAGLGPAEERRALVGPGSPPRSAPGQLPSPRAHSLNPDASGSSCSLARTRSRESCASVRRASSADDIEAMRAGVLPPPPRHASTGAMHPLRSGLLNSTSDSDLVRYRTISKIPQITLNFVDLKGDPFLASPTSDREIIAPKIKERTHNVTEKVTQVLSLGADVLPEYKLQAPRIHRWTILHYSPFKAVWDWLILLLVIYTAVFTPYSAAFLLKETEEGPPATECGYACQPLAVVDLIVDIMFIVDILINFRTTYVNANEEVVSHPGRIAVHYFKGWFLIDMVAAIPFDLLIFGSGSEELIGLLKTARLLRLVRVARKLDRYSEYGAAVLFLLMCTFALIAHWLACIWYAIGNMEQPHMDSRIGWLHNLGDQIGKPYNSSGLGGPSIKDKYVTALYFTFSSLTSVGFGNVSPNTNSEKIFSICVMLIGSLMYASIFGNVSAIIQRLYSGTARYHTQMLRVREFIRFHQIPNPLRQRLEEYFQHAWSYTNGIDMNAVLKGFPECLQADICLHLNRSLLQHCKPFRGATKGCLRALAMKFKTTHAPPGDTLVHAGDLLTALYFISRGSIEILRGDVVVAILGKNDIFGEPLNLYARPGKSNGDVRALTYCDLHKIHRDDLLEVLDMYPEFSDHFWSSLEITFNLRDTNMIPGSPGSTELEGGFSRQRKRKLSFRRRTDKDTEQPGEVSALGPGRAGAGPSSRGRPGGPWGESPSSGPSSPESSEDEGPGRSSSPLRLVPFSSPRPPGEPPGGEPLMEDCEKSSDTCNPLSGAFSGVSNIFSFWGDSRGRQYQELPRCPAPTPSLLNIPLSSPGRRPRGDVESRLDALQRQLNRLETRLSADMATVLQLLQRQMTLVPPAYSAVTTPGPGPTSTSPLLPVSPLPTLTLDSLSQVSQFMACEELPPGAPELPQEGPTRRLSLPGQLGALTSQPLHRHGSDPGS

Bacillus anthracis = assay: microbe, parasite or virus in culture; format: cell-based
[11] = not given; remark: listed apart in the source
[12] = system: Staphylococcus epidermidis; assay: MIC50/90 against Staphylococcus epidermidis; format: cell-based; details: n = 10
S. aureus ATCC 29213 = format: cell-based; details: Using S. aureus ATCC 29213 and four additional strains of S. aureus
[13] = Permeability: CACO-2 A->B; format: in vitro ADME; details: human, Caco-2
[14] = Permeability: MDCK II A->B; format: in vitro ADME; details: dog
K562 = K562 cytotoxicity; format: cell-based; details: Homo sapiens
in vitro [15] = details: human, hepatocytes
physchem = details: pH 7.4, aqueous buffer, kinetic from dmso stock, Kinetic solubility at pH 7.4-7.5 (μM)
[16] = system: Acinetobacter baumannii 19606; assay: MIC against Acinetobacter baumannii 19606; format: cell-based
Haemophilus influenzae = assay: MIC50/90 against Haemophilus influenzae; format: cell-based; details: n = 10
Rat microsomal stability = format: in vitro ADME; details: microsomes, read-out: Rat microsom. t1/2
Mycobacterium avium = assay: MIC50 against Mycobacterium avium; format: cell-based; details: n = 4
[17] = system: Burkholderia pseudomallei; assay: microbe, parasite or virus in culture; format: cell-based
Streptococcus pneumoniae = assay: MIC50/90 against Streptococcus pneumoniae; format: cell-based
Francisella tularensis = assay: microbe, parasite or virus in culture; format: cell-based
[18] = Neisseria gonorrhoeae, n = 17 (284, gepotidacin), n = 110 (147)

COc1ccc2ncc(F)c(C[C@H](O)[C@H]3OC[C@H](NCc4cnc5c(n4)NC(=O)CO5)CO3)c2n1 [Compound 284, 6-(((2-((S)-2-(3-fluoro-6-methoxy-1,5-naphthyridin-4-yl)-1-hydroxyethyl)-trans-1,3-dioxan-5-yl)amino)methyl)-2H-pyrazino[2,3-b][1,4]oxazin-3(4H)-one]
Escherichia coli 25922 MIC (Escherichia coli 25922): 16 µg/mL
MIC50 (Moraxella catarrhalis): 0.12 µg/mL (≈ 0.247 µM)
MIC90 (Moraxella catarrhalis): 0.25 µg/mL (≈ 0.514 µM)
MIC50 (Streptococcus agalactiae; Streptococcus agalactiae, n = 5 (147), n = 10 (others)): 4 µg/mL (≈ 8.22 µM)
Streptococcus agalactiae MIC90 (Streptococcus agalactiae; n = 10): 16 µg/mL
MIC (S. aureus USA300): 0.125 to 0.25 µg/mL (≈ 0.257 to 0.514 µM)
In vitro micronucleus (In vitro micronucleus): Pos. at high
MIC90 (FQ-R MRSA): 0.12 µg/mL (≈ 0.247 µM)
MIC (S. aureus 29213): 0.125 to 0.25 µg/mL (≈ 0.257 to 0.514 µM)
MIC50 (Streptococcus pyogenes; n = 5 (147), n = 10 (others)): 0.5 µg/mL (≈ 1.03 µM)
MIC90 (Streptococcus pyogenes; n = 10): 2 µg/mL (≈ 4.11 µM)
half-life [1]: > 120 min
half-life [2]: > 120 min
MIC50 (Mycobacterium abscessus): > 64 µg/mL
MIC90 (Mycobacterium abscessus): > 64 µg/mL
Dog plasma protein binding (% unbound): 20 % unbound
MIC50 (Enterococcus spp.): 1 µg/mL (≈ 2.06 µM)
MIC90 (Enterococcus spp.): 2 µg/mL (≈ 4.11 µM)
MIC50 (Staphylococcus aureus): 0.12 µg/mL (≈ 0.247 µM)
MIC90 (Staphylococcus aureus): 0.25 µg/mL (≈ 0.514 µM)
Mouse Vdss (L) [3]: 0.53*** L
half-life [4]: > 120 min
MIC50 (Neisseria gonorrhoeae; Neisseria gonorrhoeae, n = 100): 0.5 µg/mL (≈ 1.03 µM)
MIC50 (Neisseria gonorrhoeae; [18]): 1 µg/mL (≈ 2.06 µM)
MIC90 (Neisseria gonorrhoeae; [18]): 2 µg/mL (≈ 4.11 µM)
Neisseria gonorrhoeae MIC90 (Neisseria gonorrhoeae; n = 100): 2 µg/mL
half-life (Dog microsomal stability): > 120 min
Kinetic solubility at pH 7.4-7.5 (μM) [5]: > 200 μM
MIC50 [6]: 64 µg/mL (≈ 132 µM)
half-life (in vitro [7]): > 120 min
Comprehensive in vitro proarrhythmia assay at 100 μM, inhibition [8]: All <25%
half-life (in vitro [9]): > 240 min
CYP inhibition at 10 μM (1A, 2B6, 2C8, 2C9, 2C19, 2D6, 3A) [10]: No issues
IC50 (hERG): 104 µM
MIC50 (Bacillus anthracis; read-out: Bacillus anthracis MIC50 (μg/mL)): 0.06 µg/mL (≈ 0.123 µM)
MIC90 (Bacillus anthracis; read-out: Bacillus anthracis MIC90 (μg/mL)): 0.25 µg/mL (≈ 0.514 µM)
Mouse plasma protein binding (% unbound) [11]: 31 % unbound
MIC50 [12]: 0.12 µg/mL (≈ 0.247 µM)
MIC90 [12]: 0.25 µg/mL (≈ 0.514 µM)
Resistance freq. (at 8X MIC) (S. aureus ATCC 29213): <9.62 × 10^−10**
Papp A→B [13]: 1.5 ×10⁻⁶ cm/s
Papp A→B [14]: 0.74 ×10⁻⁶ cm/s
IC50 (K562): > 200 µM
half-life (in vitro [15]): > 240 min
solubility kinetic (physchem): 118 µM (≈ 57.2 µg/mL)
MIC [16]: 8 to 16 µg/mL (≈ 16.4 to 32.9 µM)
MIC50 (Haemophilus influenzae): 4 µg/mL (≈ 8.22 µM)
MIC90 (Haemophilus influenzae): 8 µg/mL (≈ 16.4 µM)
half-life (Rat microsomal stability): > 120 min
MIC50 (Mycobacterium avium): 4 µg/mL (≈ 8.22 µM)
MIC50 ([17]; read-out: Burkholderia pseudomallei MIC50 (μg/mL)): 32 µg/mL (≈ 65.8 µM)
MIC90 ([17]; read-out: Burkholderia pseudomallei MIC90 (μg/mL)): 64 µg/mL (≈ 132 µM)
MIC50 (Streptococcus pneumoniae; n = 5 (147), n = 10 (others)): 0.5 µg/mL (≈ 1.03 µM)
MIC90 (Streptococcus pneumoniae; n = 10): 1 µg/mL (≈ 2.06 µM)
MIC50 (Francisella tularensis; read-out: Francisella tularensis MIC50 (μg/mL)): 0.5 µg/mL (≈ 1.03 µM)
MIC90 (Francisella tularensis; read-out: Francisella tularensis MIC90 (μg/mL)): 4 µg/mL (≈ 8.22 µM)
